Assay results taken from US5672604A, “1-phenylmethyl benzimidazole piperazine derivative” (Fabrica Espanola de Productos Quimicos y Farmaceuticos …, priority 1993, dated 1997).
Like-named read-outs stand apart in the source and are kept apart here.

Tests used:
5HT3 receptor = target: T1, 5HT3 receptor (Cavia porcellus, UniProt O70212); assay: Inhibition of 2-methyl-serotonin induced contraction of guinea pig ileum
T1 construct: Guinea pig ileum fragments; from tissue; host or cells: guinea pig ileum fragments
T1 sequence (O70212 20-490): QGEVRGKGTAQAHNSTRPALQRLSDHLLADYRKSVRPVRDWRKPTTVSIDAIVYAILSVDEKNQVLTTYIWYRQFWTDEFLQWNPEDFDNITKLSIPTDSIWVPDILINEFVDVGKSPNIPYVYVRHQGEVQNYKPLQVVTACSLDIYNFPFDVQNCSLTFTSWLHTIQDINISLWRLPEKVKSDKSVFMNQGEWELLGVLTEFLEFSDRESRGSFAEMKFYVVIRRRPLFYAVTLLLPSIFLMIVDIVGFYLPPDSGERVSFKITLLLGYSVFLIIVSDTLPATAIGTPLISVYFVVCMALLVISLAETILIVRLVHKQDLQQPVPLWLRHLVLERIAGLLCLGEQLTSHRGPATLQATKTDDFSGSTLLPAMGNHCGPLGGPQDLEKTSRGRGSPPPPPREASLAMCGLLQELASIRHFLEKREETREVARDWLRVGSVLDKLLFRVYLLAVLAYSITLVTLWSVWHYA
Procedure: b) Guinea pig ileum fragments were submerged in K-H solution at 37° C. pH 7.4, oxygenated with carbogen (95% O2 and 5% CO2) and with an effective preload of 1-2 g. They remained in a stabilization period for 45-60 minutes. and the physiological solution was replaced every 15 minutes. After this time, contractions were induced every 15 minutes, adding 2-methyl-serotonin (final conc.: 10 μmol/l). […] The inhibition percentages and CI50 were subsequently calculated (Table I).

5HT3 = target: T2, 5HT3 (Rattus norvegicus, UniProt P35563); assay: Bind 5HT3 cort-ento; type: binding; conditions: read-out: Bind 5HT3 cort-ento pki (converted)
T2 construct: cort-ento; from tissue; host or cells: entorhinal cortex ('cort-ento')
T2 sequence (P35563 24-483): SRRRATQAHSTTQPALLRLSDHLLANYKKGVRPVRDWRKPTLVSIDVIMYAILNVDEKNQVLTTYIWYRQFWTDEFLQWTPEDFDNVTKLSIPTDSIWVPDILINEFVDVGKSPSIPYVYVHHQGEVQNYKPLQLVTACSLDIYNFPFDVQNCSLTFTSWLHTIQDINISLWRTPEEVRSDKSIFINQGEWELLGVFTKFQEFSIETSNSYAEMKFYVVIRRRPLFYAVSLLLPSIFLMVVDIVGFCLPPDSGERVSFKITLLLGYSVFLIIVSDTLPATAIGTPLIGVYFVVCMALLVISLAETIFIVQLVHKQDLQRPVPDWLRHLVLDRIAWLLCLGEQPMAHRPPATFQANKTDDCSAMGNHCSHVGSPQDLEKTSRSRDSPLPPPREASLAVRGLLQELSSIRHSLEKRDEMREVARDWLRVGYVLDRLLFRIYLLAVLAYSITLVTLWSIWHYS

serotonin 5HT3 receptor = assay: Inhibition of serotonin-induced Bezold-Jarisch reflex in anaesthetised rat; type: in vivo, Wistar rats; conditions: i.v., 5 minutes before serotonin
Procedure: After the arterial pressure (A.P.) and cardiac frequency (C.F.) parameters were stabilised, bradycardia reflex was induced by i.v. injection (the different dose of the drug tested) of 80 μv/kg (1 ml/kg) of serotonin dissolved in sterile physiological serum. Ten minutes later and after taking CF and AP back to constant levels, the products claimed herein were injected i.v. and after a lapse of five minutes, i.v. injection of the serotonin creatinine sulphate complex was repeated, quantifying the inhibition of the Bezold-Jarisch reflex.

[1] = guinea pig ileum, contraction by 2-methyl-serotonin 10 μmol/l, incubation 15 minutes, read-out: 2-me-5HT g.p. ileum CI50

| IC50 (5HT3 receptor; [1]) [nM] | Compound | other results |
| --- | --- | --- |
|  | Clc1ccc2c(c1)nc(N1CCNCC1)n2Cc1ccccc1 [Product 2] | IC50 (5HT3 receptor): 7.2 nM |
| 116 | Oc1ccc2c(c1)nc(N1CCNCC1)n2Cc1ccccc1 [Product 5] |  |
| 10.5 | O=[N+]([O-])c1ccc2c(c1)nc(N1CCNCC1)n2Cc1ccccc1 [Product 3] | Ki (5HT3): 39.8 nM; B-J reflex rat-anaesth. DE50 (serotonin 5HT3 receptor): 7.4 μg/kg iv |
| 265 | Clc1cc2nc(N3CCNCC3)n(Cc3ccccc3)c2cc1Cl [Product 6] |  |
| 28.3 | Cc1ccc2c(c1)nc(N1CCNCC1)n2Cc1ccccc1 [Product 1, 5-methyl-1-phenylmethyl-2-piperazinyl-1H-benzimidazole] |  |
| 1.65 | Fc1ccc2c(c1)nc(N1CCNCC1)n2Cc1ccccc1 [Product 4] |  |
